Assay results taken from patent publication US9670147B2, “Antioxidant inflammation modulators: oleanolic acid derivatives with amino and other modifications at C-17” (REATA PHARMACEUTICALS, INC., priority 2008, dated 2017).

Columns and labels:
HO-1 = test: Nrf2 target gene induction in MDA-MB-435 cells, qPCR: HO-1; type: cell-based, human; settings: 16 hours
Experimental: FIG. 43. Induction of HO-1. FIGS. 43A and 43B: MDA-MB-435 human melanoma cells were treated with vehicle (DMSO) or the indicated compounds and concentrations for 16 hours. HO-1 mRNA levels were quantified using qPCR and were normalized relative to a DMSO-treated sample run in parallel. Values are averages of duplicate wells. FIG. 43C: MDA-MB-435 cells were treated with vehicle (DMSO) or the indicated compounds at 400 nM for 16 hours. HO-1, TrxR1 and actin protein levels were assayed by immunoblotting. Actin served as a loading control.
(§1) FIGS. 44, 46 and 47—Induction of HO-1, TrxR1 and γ-GCS. FIGS. 44A-C, 46A-C, 47A-C: MDA-MB-435 human melanoma cells were treated with vehicle (DMSO) or the indicated compounds (400 nM) for 16 hours. HO-1, thioredoxin reductase-1 (TrxR1), and γ-glutamylcysteine synthetase (γ-GCS) mRNA levels were quantified using qPCR and were normalized relative to a DMSO-treated sample run in parallel. Values are averages of duplicate wells. FIGS. 44D, 46D, 47D: MDA-MB-435 cells were treated with vehicle (DMSO) or the indicated compounds at 400 nM for 16 hours. HO-1, TrxR1 and actin protein levels were assayed by immunoblotting.
(§2) FIG. 45. Induction of HO-1, TrxR1 and γ-GCS. FIGS. 45 A-C: MDA-MB-435 cells were treated with vehicle (DMSO) or the indicated compounds at 160 nM for 16 hours. HO-1, TrxR1, and γ-GCS mRNA levels were quantified by qPCR and were normalized relative to a DMSO-treated sample run in parallel. Values are averages of duplicate wells. FIGS. 44D, 46D, 47D: MDA-MB-435 cells were treated with vehicle (DMSO) or the indicated compounds at 160 nM for 16 hours. HO-1, TrxR1 and actin protein levels were assayed by immunoblotting.
(§3) MDA-MB-435 human melanoma cells were treated with vehicle (DMSO) or the indicated compounds and concentrations for 16 hours. HO-1, thioredoxin reductase-1 (TrxR1), γ-glutamylcysteine synthetase (γ-GCS), and ferritin heavy chain mRNA levels were quantified using qPCR and were normalized relative to a DMSO-treated sample run in parallel. Values are averages of duplicate wells. Primer sequences are as follows.

TrxR1 = test: Nrf2 target gene induction in MDA-MB-435 cells, qPCR: TrxR1; type: cell-based, human; settings: 16 hours
Experimental: as §1, §2, §3

γ-GCS = test: Nrf2 target gene induction in MDA-MB-435 cells, qPCR: γ-GCS; type: cell-based, human; settings: 16 hours
Experimental: as §1, §2, §3

iNOS [1] = test: iNOS Western blot in RAW264.7 mouse macrophages; type: cell-based; settings: compounds at 300 nM for 2 hours, 24 hour induction by IFNγ, read-out: iNOS suppr. WB
Experimental: FIGS. 38-40. iNOS Western Blot in RAW264.7 mouse macrophages. Cells were pretreated by compounds at 300 nM for 2 hours, followed by 24 hour induction by IFNγ (20 ng/ml). […]

[2] = test system: IFNγ-induced NO production in RAW264.7 macrophages; test: Suppression of IFNγ-induced NO production (Griess reagent); type: cell-based, mouse; settings: Mus musculus, 2 h pre-treatment, then 20 ng/ml IFNγ for 24 hours
Experimental: (§4) FIGS. 1-34. Inhibition of NO Production. RAW264.7 macrophages were pre-treated with DMSO or drugs at various concentrations (nM) for 2 hours, then treated with 20 ng/ml IFNγ for 24 hours. NO concentration in media was determined using the Griess reagent system; cell viability was determined using WST-1 reagent. FIGS. 49-52. Inhibition of NO Production. RAW264.7 macrophages were pre-treated with DMSO or drugs at various concentrations (nM) for 2 hours, then treated with 20 ng/ml IFNγ for 24 hours. NO concentration in media was determined using the Griess reagent system; cell viability was determined using WST-1 reagent. RAW264.7 macrophages were pre-treated with DMSO or drugs for 2 hours, then treated with recombinant mouse IFNγ (Sigma) for 24 hours. NO concentration in media was determined using the Griess reagent system (Promega). Cell viability was determined using WST-1 reagent (Roche).

RAW264.7 macrophages = test: Cell viability, WST-1 reagent; type: cell-based, mouse; settings: Mus musculus, 2 h pre-treatment, then 20 ng/ml IFNγ for 24 hours
Experimental: as §4

iNOS [3] = test: Suppression of iNOS mRNA induction, qPCR; type: cell-based, mouse; settings: RAW264.7; 2 h pre-treatment, 10 ng/ml IFNγ for 2 hours
Experimental: (§5) FIG. 35. Suppression of iNOS mRNA induction. RAW264.7 mouse macrophages were pre-treated for 2 hours with compounds at the indicated concentrations and subsequently stimulated with 10 ng/ml IFNγ for an additional 2 hours. mRNA levels of iNOS were quantified by qPCR and are shown relative to the vehicle-treated IFNγ-stimulated sample which was normalized to a value of 1. Values are averages of duplicate PCR reactions, each with triplicate wells.
as §5, with “36.” for “35.”
as §5, with “37.” for “35.”
as §5, with “RAW264.7” for “FIG. 35. Suppression of iNOS mRNA induction. RAW264.7”, “macrophage cells” for “macrophages”

CC1(C)CC[C@]2(NS(C)(=O)=O)CC[C@]3(C)[C@H](C(=O)C=C4[C@@]5(C)C=C(C#N)C(=O)C(C)(C)[C@@H]5CC[C@]43C)[C@@H]2C1 [Compound 63175, N-((4aS,6aR,6bS,8aR,12aS,14aR,14bS)-11-cyano-2,2,6a,6b,9,9,12a-heptamethyl-10,14-dioxo-1,2,3,4,4a,5,6,6a,6b,7,8,8a,9,10,12a,14,14a,14b-octadecahydropicen-4a-yl)methanesulfonamide]
HO-1 induction (HO-1; 160 nM): 15% of induction observed for RTA 402 | HO-1 induction (HO-1; 400 nM): 10% of induction observed for RTA 402 | TrxR1 induction (TrxR1; 160 nM): 86% of induction observed for RTA 402 | TrxR1 induction (TrxR1; 400 nM): 48% of induction observed for RTA 402 | γ-GCS induction (γ-GCS; 160 nM): 64% of induction observed for RTA 402 | inhibition at 0.3 µM (iNOS [1]): ~90% | IC50 [2]: 2 nM | IC50 (RAW264.7 macrophages): 200 nM | iNOS suppr. qPCR (iNOS [3]): ~65%

CC1(C)CC[C@]2(NS(=O)(=O)CC(F)(F)F)CC[C@]3(C)[C@H](C(=O)C=C4[C@@]5(C)C=C(C#N)C(=O)C(C)(C)[C@@H]5CC[C@]43C)[C@@H]2C1 [Compound 63247, N-((4aS,6aR,6bS,8aR,12aS,14aR,14bS)-11-cyano-2,2,6a,6b,9,9,12a-heptamethyl-10,14-dioxo-1,2,3,4,4a,5,6,6a,6b,7,8,8a,9,10,12a,14,14a,14b-octadecahydropicen-4a-yl)-2,2,2-trifluoroethanesulfonamide]
HO-1 induction (HO-1; 400 nM): 19% of induction observed for RTA 402 | TrxR1 induction (TrxR1; 400 nM): 76% of induction observed for RTA 402 | γ-GCS induction (γ-GCS; 400 nM): 75% of induction observed for RTA 402 | inhibition at 0.3 µM (iNOS [1]): > 90% | IC50 [2]: ~2 nM | IC50 (RAW264.7 macrophages): 150 nM

CNC(=O)N[C@]12CCC(C)(C)C[C@H]1[C@H]1C(=O)C=C3[C@@]4(C)C=C(C#N)C(=O)C(C)(C)[C@@H]4CC[C@@]3(C)[C@]1(C)CC2 [Compound 63172, 1-((4aS,6aR,6bS,8aR,12aS,14aR,14bS)-11-cyano-2,2,6a,6b,9,9,12a-heptamethyl-10,14-dioxo-1,2,3,4,4a,5,6,6a,6b,7,8,8a,9,10,12a,14,14a,14b-octadecahydropicen-4a-yl)-3-methylurea]
HO-1 induction (HO-1; 160 nM): 4% of induction observed for RTA 402 | TrxR1 induction (TrxR1; 160 nM): 43% of induction observed for RTA 402 | γ-GCS induction (γ-GCS; 160 nM): 27% of induction observed for RTA 402 | IC50 [2]: 30 nM | IC50 (RAW264.7 macrophages): > 200 nM

CCS(=O)(=O)N[C@]12CCC(C)(C)C[C@H]1[C@H]1C(=O)C=C3[C@@]4(C)C=C(C#N)C(=O)C(C)(C)[C@@H]4CC[C@@]3(C)[C@]1(C)CC2 [Compound 63193, N-((4aS,6aR,6bS,8aR,12aS,14aR,14bS)-11-cyano-2,2,6a,6b,9,9,12a-heptamethyl-10,14-dioxo-1,2,3,4,4a,5,6,6a,6b,7,8,8a,9,10,12a,14,14a,14b-octadecahydropicen-4a-yl)ethanesulfonamide]
HO-1 induction (HO-1; 160 nM): 6% of induction observed for RTA 402 | TrxR1 induction (TrxR1; 160 nM): 86% of induction observed for RTA 402 | γ-GCS induction (γ-GCS; 160 nM): 55% of induction observed for RTA 402 | inhibition at 0.3 µM (iNOS [1]): > 90% | IC50 [2]: 1.5 nM | IC50 (RAW264.7 macrophages): > 200 nM | iNOS suppr. qPCR (iNOS [3]): ~65%

CC1(C)CC[C@]2(NC(=O)N3CCC(O)CC3)CC[C@]3(C)[C@H](C(=O)C=C4[C@@]5(C)C=C(C#N)C(=O)C(C)(C)[C@@H]5CC[C@]43C)[C@@H]2C1 [Compound 63185, N-((4aS,6aR,6bS,8aR,12aS,14aR,14bS)-11-cyano-2,2,6a,6b,9,9,12a-heptamethyl-10,14-dioxo-1,2,3,4,4a,5,6,6a,6b,7,8,8a,9,10,12a,14,14a,14b-octadecahydropicen-4a-yl)-4-hydroxypiperidine-1-carboxamide]
HO-1 induction (HO-1; 160 nM): 1% of induction observed for RTA 402 | TrxR1 induction (TrxR1; 160 nM): 71% of induction observed for RTA 402 | γ-GCS induction (γ-GCS; 160 nM): 27% of induction observed for RTA 402 | inhibition at 0.3 µM (iNOS [1]): 0% | IC50 [2]: 91 nM | IC50 (RAW264.7 macrophages): > 200 nM | iNOS suppr. qPCR (iNOS [3]): 0%

CC1(C)CC[C@]2(NS(=O)(=O)c3cccs3)CC[C@]3(C)[C@H](C(=O)C=C4[C@@]5(C)C=C(C#N)C(=O)C(C)(C)[C@@H]5CC[C@]43C)[C@@H]2C1 [Compound 63187, N-((4aS,6aR,6bS,8aR,12aS,14aR,14bS)-11-cyano-2,2,6a,6b,9,9,12a-heptamethyl-10,14-dioxo-1,2,3,4,4a,5,6,6a,6b,7,8,8a,9,10,12a,14,14a,14b-octadecahydropicen-4a-yl)thiophene-2-sulfonamide]
HO-1 induction (HO-1; 400 nM): 32% of induction observed for RTA 402 | TrxR1 induction (TrxR1; 400 nM): 90% of induction observed for RTA 402 | γ-GCS induction (γ-GCS; 400 nM): 90% of induction observed for RTA 402 | inhibition at 0.3 µM (iNOS [1]): > 90% | IC50 [2]: 2 to 5 nM | IC50 (RAW264.7 macrophages): 100 nM

COC(=O)N[C@]12CCC(C)(C)C[C@H]1[C@H]1C(=O)C=C3[C@@]4(C)C=C(C#N)C(=O)C(C)(C)[C@@H]4CC[C@@]3(C)[C@]1(C)CC2 [Compound 63167, methyl-(4aS,6aR,6bS,8aR,12aS,14aR,14bS)-11-cyano-2,2,6a,6b,9,9,12a-heptamethyl-10,14-dioxo-1,2,3,4,4a,5,6,6a,6b,7,8,8a,9,10,12a,14,14a,14b-octadecahydropicen-4a-ylcarbamate]
HO-1 induction (HO-1; 400 nM): 61% of induction observed for RTA 402 | TrxR1 induction (TrxR1; 400 nM): 62% of induction observed for RTA 402 | inhibition at 0.3 µM (iNOS [1]): ~90% | IC50 [2]: 2 nM | IC50 (RAW264.7 macrophages): 180 nM | iNOS suppr. qPCR (iNOS [3]): ~50%

C#CC(=O)N[C@]12CCC(C)(C)C[C@H]1[C@H]1C(=O)C=C3[C@@]4(C)C=C(C#N)C(=O)C(C)(C)[C@@H]4CC[C@@]3(C)[C@]1(C)CC2 [Compound 63246, N-((4aS,6aR,6bS,8aR,12aS,14aR,14bS)-11-cyano-2,2,6a,6b,9,9,12a-heptamethyl-10,14-dioxo-1,2,3,4,4a,5,6,6a,6b,7,8,8a,9,10,12a,14,14a,14b-octadecahydropicen-4a-yl)propiolamide]
HO-1 induction (HO-1; 400 nM): 25% of induction observed for RTA 402 | TrxR1 induction (TrxR1; 400 nM): 66% of induction observed for RTA 402 | γ-GCS induction (γ-GCS; 400 nM): 77% of induction observed for RTA 402 | inhibition at 0.3 µM (iNOS [1]): > 90% | IC50 [2]: ~3 nM | IC50 (RAW264.7 macrophages): > 200 nM
